Data from patent US9580390B2, “Indazole compounds as kinase inhibitors and method of treating cancer with same” (University Health Network, priority 2011, dated 2017).
Like-named read-outs stand apart in the source and are kept apart here.

How the values were obtained:
[1] = tested on: colon cancer cells (HCT116); assay: Cancer cell line growth inhibition (SRB assay); type: cell-based; conditions: Homo sapiens, HCT-116, read-out: Cancer Cell Line GI50 Range HCT116
Description: Breast cancer cells (MDA-MB-231), colon cancer cells (HCT116) and ovarian cancer cells (PA-1) were seeded (1000 to 4000 in 80 μl per well depending on the cell growth rate) into 96 well plates 24 hours before compound overlay. Compounds were prepared as 10 mM stock solutions in 100% DMSO which were diluted with DMEM (Dulbecco's Modified Eagle's Medium) cell growth Medium (Invitrogen, Burlington, ON, Canada) containing 10% FBS (Fetal Bovine Serum) to concentrations ranging from 50 nM to 250 μM. Aliquots (20 μl) from each concentration were overlaid to 80 μl of the pre-seeded cells in the 96 well plates to make final concentrations of 10 nM to 50 μM. The cells were cultured for 5 days before the Sulforhodamine B assay (SRB) was performed to determine the compound's cell growth inhibition activity.
Sulforhodamine B (purchased from Sigma, Oakville, ON, Canada) is a water-soluble dye that binds to the basic amino acids of the cellular proteins. Thus, colorimetric measurement of the bound dye provides an estimate of the total protein mass that is related to the cell number. the cells are fixed in situ by gently aspirating off the culture media and adding 50 μl ice cold 10% Trichloroacetic Acid (TCA) per well and incubate at 4° C. for 30-60 min. The plates are washed with H2O five times and allowed to air dry for 5 min. Addition of 50 μl 0.4% (w/v) SRB solution in 1% (v/v) acetic acid to each well and incubation for 30 min at RT completes the staining reaction. Following staining, plates are washed four times with 1% acetic acid to remove unbound dye and then allowed to air dry for 5 min. The stain is solubilized with 100 μl of 10 mM Tris pH 10.5 per well. Absorbance is read at 570 nm.
The percentage (%) of relative growth inhibition was calculated by comparing to DMSO treated only cells (100%). GI50's were determined for compounds with cytotoxic activity. The GI50 was calculated using GraphPad PRISM software (GraphPad Software, Inc., San Diego, Calif., USA).

[2] = target: T1, human PLK4 (Homo sapiens, UniProt O00444); assay: PLK4 inhibition assay (indirect ELISA); type: biochemical; conditions: 15 μM ATP
T1 construct: amino terminal GST fusion of residues 1-391 of human PLK4; made in house; host or cells: E. coli
T1 sequence (O00444 1-391): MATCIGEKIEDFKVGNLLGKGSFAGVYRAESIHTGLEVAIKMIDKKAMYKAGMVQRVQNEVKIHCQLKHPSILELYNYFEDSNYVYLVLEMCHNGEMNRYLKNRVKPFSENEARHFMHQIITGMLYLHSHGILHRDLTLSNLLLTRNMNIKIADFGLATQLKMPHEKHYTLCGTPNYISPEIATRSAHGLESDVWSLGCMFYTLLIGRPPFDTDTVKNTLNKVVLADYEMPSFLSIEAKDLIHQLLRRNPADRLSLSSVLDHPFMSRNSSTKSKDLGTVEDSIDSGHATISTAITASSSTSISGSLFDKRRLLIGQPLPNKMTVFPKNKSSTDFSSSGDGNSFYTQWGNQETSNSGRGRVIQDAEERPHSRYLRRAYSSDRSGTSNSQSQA
Outline: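 Dephosphorylated GST-PLK4 (residues 1-391, E. coli; 4 nM) was preincubated 15 min with compound, then reacted 30 min with 15 μM ATP in HEPES pH 7.4, MgCl2, Brij 35 on MBP-coated plates. Phospho-MBP was detected by antibody/HRP ELISA at 450 nm; IC50 from 10-point titration by 4-parameter logistic fit, or single 10 μM % inhibition.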

[3] = tested on: TICs (Ovarian 2393A); assay: Ovarian tumor-initiating cell growth inhibition (Alamar Blue); type: cell-based; conditions: 144 h, 6 days, read-out: Tumor Initiating Cell GI50 Range Ovarain 2393A
[4] = tested on: TICs (Colon 12); assay: Colon tumor-initiating cell growth inhibition (Alamar Blue); type: cell-based; conditions: 216 h, 9 days, read-out: Tumor Initiating Cell GI50 Range Colon 12
[5] = tested on: Breast cancer cells; assay: Cancer cell line growth inhibition (SRB assay); type: cell-based; conditions: Homo sapiens; MDA-MB-468; read-out: Cancer Cell Line GI50 Range MDA-MB-468
[6] = tested on: ovarian cancer cells (PA-1); assay: Cancer cell line growth inhibition (SRB assay); type: cell-based; conditions: read-out: Cancer Cell Line GI50 Range PA-1
[7] = target: T2, human TTK (Homo sapiens, UniProt P33981); assay: TTK inhibition assay (indirect ELISA); type: biochemical; conditions: read-out: TTK IC50 Range
T2 construct: amino terminal GST fusion of full length human TTK; purchased Invitrogen
T2 sequence (P33981 1-857): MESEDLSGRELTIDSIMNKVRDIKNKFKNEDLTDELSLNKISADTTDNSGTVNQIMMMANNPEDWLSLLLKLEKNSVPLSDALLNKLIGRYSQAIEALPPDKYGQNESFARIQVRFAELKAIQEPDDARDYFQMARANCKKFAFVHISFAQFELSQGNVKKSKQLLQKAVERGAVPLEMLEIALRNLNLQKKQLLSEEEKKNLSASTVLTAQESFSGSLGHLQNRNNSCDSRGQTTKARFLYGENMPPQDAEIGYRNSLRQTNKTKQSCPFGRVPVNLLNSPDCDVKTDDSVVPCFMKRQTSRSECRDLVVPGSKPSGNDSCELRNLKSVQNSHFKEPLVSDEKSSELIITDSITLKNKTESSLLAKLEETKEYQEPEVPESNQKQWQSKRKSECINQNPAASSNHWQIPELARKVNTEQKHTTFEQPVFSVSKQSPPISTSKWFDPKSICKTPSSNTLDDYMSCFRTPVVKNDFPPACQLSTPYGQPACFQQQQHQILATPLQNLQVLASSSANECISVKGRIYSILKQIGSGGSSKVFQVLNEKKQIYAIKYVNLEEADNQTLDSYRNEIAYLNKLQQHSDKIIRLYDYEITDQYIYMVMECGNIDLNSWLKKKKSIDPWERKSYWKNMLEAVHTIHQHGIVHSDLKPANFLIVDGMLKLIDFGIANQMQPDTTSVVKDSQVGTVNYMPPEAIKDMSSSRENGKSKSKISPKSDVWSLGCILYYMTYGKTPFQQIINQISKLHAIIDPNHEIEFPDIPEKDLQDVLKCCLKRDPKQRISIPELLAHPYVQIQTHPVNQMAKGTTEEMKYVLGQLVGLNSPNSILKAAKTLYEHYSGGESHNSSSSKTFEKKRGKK

[8] = HCT116 colon cancer cells, SRB assay
[9] = PA-1 ovarian cancer cells, SRB assay

Row | SMILES | GI50 [1] [nM] | IC50 [2] [nM] | GI50 ([3]; Ovarian 2393A TICs) [nM] | GI50 ([4]; Colon 12 TICs) [nM] | GI50 [5] [nM] | GI50 ([6]; Homo sapiens, PA-1) [nM] | IC50 [7] [nM] | GI50 [1, 8] [nM] | GI50 ([3]; ovarian TICs, Alamar Blue) [nM] | GI50 ([4]; colon TICs, Alamar Blue) [nM] | GI50 [6, 9] [nM]
1 | CC(C)[C@@H](NC(=O)c1ccc2[nH]nc(-c3ccc(OC4CCN(C)CC4)cc3)c2c1)c1ccccc1Cl [Example A274, (R)-N-(1-(2-chlorophenyl)-2-methylpropyl)-3-(4-((1-methylpiperidin-4-yl)oxy)phenyl)-1H-indazole-5-carboxamide] | 100 to 500 | < 50 | 100 to 500 | 100 to 500 | > 500 | 100 to 500 | < 100 | – | – | – | –
2 | CC(C)[C@H](NC(=O)c1ccc2[nH]nc(-c3ccc(OC4CC5CCC(C4)N5CCO)cc3)c2c1)c1ccccc1Cl (stereo partly drawn) [Example A337, N-((S)-1-(2-chlorophenyl)-2-methylpropyl)-3-(4-(((1R,3R,5S)-8-(2-hydroxyethyl)-8-azabicyclo[3.2.1]octan-3-yl)oxy)phenyl)-1H-indazole-5-carboxamide] | < 100 | < 50 | < 100 | < 100 | < 100 | < 100 | < 100 | – | – | – | –
3 | CC(C)[C@H](NC(=O)c1ccc2[nH]nc(-c3ccc(OC4CCN(C=O)CC4)cc3)c2c1)c1ccccc1Cl [Example A334, (S)-N-(1-(2-chlorophenyl)-2-methylpropyl)-3-(4-((1-formylpiperidin-4-yl)oxy)phenyl)-1H-indazole-5-carboxamide] | < 100 | < 50 | < 100 | < 100 | – | < 100 | < 100 | – | – | – | –
4 | CO[C@@H](C(=O)Nc1ccc2[nH]nc(-c3ccc(OC4CCN(C=O)CC4)cc3)c2c1)c1ccccc1 [Example A169, (R)-N-(3-(4-((1-formylpiperidin-4-yl)oxy)phenyl)-1H-indazol-5-yl)-2-methoxy-2-phenylacetamide] | – | < 50 | – | – | – | – | – | 100 to 500 | > 500 | > 500 | 100 to 500
5 | CN1CCC(Oc2ccc(-c3n[nH]c4ccc(C(=O)N[C@@H](c5sccc5Cl)C5CC5)cc34)cc2)CC1 [Example A166, (R)-N-((3-chlorothiophen-2-yl)(cyclopropyl)methyl)-3-(4-((1-methylpiperidin-4-yl)oxy)phenyl)-1H-indazole-5-carboxamide] | – | < 50 | – | – | – | – | – | < 100 | < 100 | < 100 | < 100
6 | O=CN1CCC(Oc2ccc(-c3n[nH]c4ccc(NC(=O)C(c5ccccn5)C5CCCC5)cc34)cc2)CC1 (stereo not shown) [Example A176, 2-cyclopentyl-N-(3-(4-((1-formylpiperidin-4-yl)oxy)phenyl)-1H-indazol-5-yl)-2-(pyridin-2-yl)acetamide] | – | < 50 | – | – | – | – | – | 100 to 500 | 100 to 500 | 100 to 500 | 100 to 500
7 | CN1CCC(Oc2ccc(-c3n[nH]c4ccc(C(=O)N[C@H](CCO)c5ccccc5)cc34)cc2)CC1 [Example A137, (R)-N-(3-hydroxy-1-phenylpropyl)-3-(4-((1-methylpiperidin-4-yl)oxy)phenyl)-1H-indazole-5-carboxamide] | – | < 50 | – | – | – | – | – | < 100 | 100 to 500 | > 500 | 100 to 500
8 | CC(C)[C@H](NC(=O)c1ccc2[nH]nc(-c3ccc(OC4CC5CCC(C4)N5C=O)cc3)c2c1)c1ccccc1Cl (stereo partly shown) [Example A333] | < 100 | < 50 | < 100 | < 100 | – | < 100 | < 100 | – | – | – | –
9 | CN1CCC(Oc2ccc(-c3n[nH]c4ccc(C(=O)NC(c5ccsc5)C5CCCC5)cc34)cc2)CC1 (stereo not shown) [Example A110, N-(cyclopentyl(thiophen-3-yl)methyl)-3-(4-((1-methylpiperidin-4-yl)oxy)phenyl)-1H-indazol-5-carboxamide] | – | < 50 | – | – | – | – | – | < 100 | 100 to 500 | < 100 | < 100
10 | CC[C@H](NC(=O)c1ccc2[nH]nc(-c3ccc(OC4CCN(C5COC5)CC4)cc3)c2c1)c1ccccc1Cl [Example A193, (S)-N-(1-(2-chlorophenyl)propyl)-3-(4-((1-(oxetan-3-yl)piperidin-4-yl)oxy)phenyl)-1H-indazole-5-carboxamide] | – | < 50 | – | – | – | – | – | < 100 | 100 to 500 | < 100 | < 100
11 | COCCN1CCC(Oc2ccc(-c3n[nH]c4ccc(C(=O)N[C@H](c5ccsc5)C5CC5)cc34)cc2)CC1 [Example A154, (S)-N-(cyclopropyl(thiophen-3-yl)methyl)-3-(4-((1-(2-methoxyethyl)piperidin-4-yl)oxy)phenyl)-1H-indazole-5-carboxamide] | – | < 50 | – | – | – | – | – | < 100 | < 100 | < 100 | 100 to 500
12 | CN1CCC(Oc2ccc(-c3n[nH]c4ccc(NC(=O)C(c5ccccc5)C5CC5)cc34)cc2)CC1 (stereo not shown) [Example A138, 2-cyclopropyl-N-(3-(4-((1-methylpiperidin-4-yl)oxy)phenyl)-1H-indazol-5-yl)-2-phenylacetamide] | – | < 50 | – | – | – | – | – | < 100 | 100 to 500 | < 100 | < 100
13 | CN1CCC(Oc2ccc(-c3n[nH]c4ccc(C(=O)NC(c5ccccc5)C5CC5)cc34)cc2Cl)CC1 (stereo not shown) [Example A188, 3-(3-chloro-4-((1-methylpiperidin-4-yl)oxy)phenyl)-N-(cyclopropyl(phenyl)methyl)-1H-indazole-5-carboxamide] | – | < 50 | – | – | – | – | – | 100 to 500 | > 500 | > 500 | 100 to 500
14 | CN1CCC(Oc2ccc(-c3n[nH]c4ccc(C(=O)N[C@H](c5sccc5Cl)C5CC5)cc34)cc2)CC1 [Example A167, (S)-N-((3-chlorothiophen-2-yl)(cyclopropyl)methyl)-3-(4-((1-methylpiperidin-4-yl)oxy)phenyl)-1H-indazole-5-carboxamide] | – | < 50 | – | – | – | – | – | < 100 | < 100 | < 100 | 100 to 500
